US20190300892A1, “CONSTRUCTS AND METHODS FOR BIOSYNTHESIS OF GALANTHAMINE” (priority 2014, published 2019)
Entries after “also recorded” stand apart in the source; their conditions may differ. Read-outs that look alike come from different tables or passages of the source.

Legend:
CYP96T1 = target: T1, CYP96T1 (Narcissus aff. pseudonarcissus MK-2014, UniProt A0A140IL90); type: biochemical; conditions: for product formation as CYP96T1 substrate: LC-MS/MS
T1 construct: made in house; host or cells: Spodoptera frugiperda Sf9 cells (Baculogold baculovirus, pVL1392)
T1 sequence (A0A140IL90 1-513): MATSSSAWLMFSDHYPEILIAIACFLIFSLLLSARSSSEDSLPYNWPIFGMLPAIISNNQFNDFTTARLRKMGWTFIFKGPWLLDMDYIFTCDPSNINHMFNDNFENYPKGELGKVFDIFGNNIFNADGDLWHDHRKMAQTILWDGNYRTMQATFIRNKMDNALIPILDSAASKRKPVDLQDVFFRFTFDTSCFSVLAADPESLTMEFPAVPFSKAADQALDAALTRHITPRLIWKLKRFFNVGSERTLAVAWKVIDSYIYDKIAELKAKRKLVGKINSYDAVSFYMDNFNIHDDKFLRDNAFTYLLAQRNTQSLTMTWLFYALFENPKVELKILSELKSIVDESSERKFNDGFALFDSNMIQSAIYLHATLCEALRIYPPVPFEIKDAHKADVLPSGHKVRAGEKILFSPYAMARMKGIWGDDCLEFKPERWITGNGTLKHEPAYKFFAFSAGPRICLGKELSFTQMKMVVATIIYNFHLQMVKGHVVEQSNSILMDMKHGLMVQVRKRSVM
Protocol: Recombinant protein production of NpN4OMT and norbelladine synthase/reductase in 1 L of E. coli and purification with TALON resin followed standard methods. No proteases were added to the protein extract, and desalting was performed with PD-10 columns from GE Healthcare. Protein quantity was determined according to Bradford; purity was monitored by SDS-PAGE. The E. coli cell line containing the hexahistidine-tagged methylthioadenosine/S-adenosylhomocysteine nucleosidase (Pfs) construct from Choi-Rhee and Cronan's work was used to purify Pfs protein. CYP96T1 was co-expressed with cytochrome P450 reductase in Spodoptera frugiperda Sf9 cells using Baculogold baculoviurus (BD Biosciences). Whole cell lysates were used in CYP96T1 enzyme assays.
CYP96T1 assays contained 30 mM KPO4 pH 8.0, 1.25 mM NADPH, 10 μM substrate and 70 μl of virus infected Sf9 cell suspension in 200 μl total volume. The assays were incubated for 2-4 hr at 30° C. 4′-O-metylnorbelladine was used as an initial test compound. Substrate specificity tests were done on 4′-O-methyl-N-methylnorbelladine, norbelladine, N-methylnorbelladine, 3′-O-methylnorbelladine, 3′,4′-O-dimethylnorbelladine, haemanthamine, (S)-coclaurine, (R)-coclaurine and mixed (10aR,4bR)- and (10aS,4bS)-noroxomaritidine. Assays derivatized with sodium borohydride were incubated 2 hr at 30° C. followed by addition of 0.5 volumes 0.5 M sodium borohydride in 0.5 M sodium hydroxide and incubated 30 min at RT. The CYP96T1 assay resolved on a Chiral-CBH column and assays measured with HPLC used fresh CYP96T1 and CPR expressing SF9 cell protein prepared using re-amplified virus. Enzyme assays on all substrates were extracted as previously described and run on a QTRAP 4000 coupled to a IL-20AC XR prominence liquid auto sampler, 20AD XR prominence liquid chromatograph and Phenomenex Luna 5 μm C8(2) 250×4.60 mm column. HPLC gradient and MS settings were as previously described for NpN4OMT. Assay specific MS/MS parameters are presented in
Table 4. Multiple Reaction Monitoring (MRM) parameters for relative quantification of (10aR,4bR)- and (10aS,4bS)-noroxomaritidine, N-demethylnarwedine, narwedine and the two unknown compounds are presented in Table5. For analysis of product chirality, a Chrom Tech, Inc. Chiral-CBH 100×4.0 mm, 5 μM column was used with a 30 min isocratic flow of 2.5% HPLC grade ethanol and 10 mM ammonium acetate with pH adjusted to 7.0 with ammonium hydroxide.

NpN4OMT1 = target: T2, NpN4OMT1 (Narcissus aff. pseudonarcissus MK-2014, UniProt A0A077EWA5); type: biochemical; conditions: for enzymatic activity upon addition of divalent cation: cation dependence test, 5 min assays, 4 μM norbelladine, 37° C.
T2 construct: made in house; host or cells: E. coli BL21(DE3) Codon Plus RIL
Protocol: Enzyme assays for initial testing of NpN4OMT1 contained 10 μg of pure protein with 200 μM AdoMet, 100 μM norbelladine and 30 mM potassium phosphate buffer pH 8.0 in 100 μl. The assays were incubated for 2 hr at 30° C. The vector control was an E. coli extract purified with TALON in the same way as the methyltransferase protein. For the vector control assay, an equal volume of the pure vector control extract was substituted for the NpN40MT1 protein in the enzyme assay. These assays were quenched by adjusting the pH to 9.5 with two volumes of sodium bicarbonate and extracted with two volumes ethyl acetate two times. After drying, the extracts were re-suspended in the initial mobile phase of the HPLC program. The HPLC separation of the assays was performed using a phenomenex Luna C8(2) 5 m 250×4.6 mm column with solvent A (0.1% formic acid in H2O) and solvent B (acetonitrile). The program started with 10% solvent B and a flow rate of 0.8 ml/min, a linear gradient began at 2 min to 30% at 15 min, 90% at 15.1 min, 90% at 20 min, 10% at 21 min and 10% at 28 min. Injection volume was 20 μl using a Waters auto-sampler. Waters UV detector was set to 277 nm.
After optimization of the NpN4OMT assay, the buffer was changed to […] glycine at pH 8.8, with 5 mM of MgCl2 added and the temperature was increased to 37° C. in 100 μl total reaction volume. When performing kinetic assays, the E. coli enzyme Pfs was added to break down SAH and prevent product inhibition. Papaverine was used as an internal standard.
With the same solvent system as for screening enzyme assays, the HPLC program started with 20% B and a flow rate of 0.8 ml/min, a linear gradient began at 2 min to 25.4% B at 7 min, 90% at 7.2 min, 90% at 9 min, 20% at 9.1 min and 20% at 14 min. A 4000 QTRAP mass spectrometer coupled to the same LC column and time program as used in HPLC was used to collect all compound mass and fragmentation data.
For NpN4OMT norbelladine kinetics an MRM program in positive ion mode was used to monitor the following fragments 260.00 [M+H]^+/138.00 [M−C8H9O]^+• m/z, 260.00 [M+H]^+/121.00 [M−C7H8NO2]^+• m/z, 274.00 [M+H]^+/137.00 [M+H—C8H9O2]^+ m/z, 274.00 [M+H]^+/122.00 [M+H—C8H10NO2]^+ m/z. The fragments with 260.00 [M+H]^+ m/z and 274.00 [M+H]^+ m/z molecular ions were replaced when looking at N-methylnorbelladine for 274.00 [M+H]^+/152.10 [M−C8H9O]^+• m/z, 274.00 [M+H]^+/121.00 [M−C9H12NO2]^+• m/z, 288.00 [M+H]^+/150.10 [M−C8H9O2]^+• m/z and 288.20 [M+H]^+/137.00 [M−C9H12NO]^+• m/z. Papaverine internal standard was monitored with the following fragments 340.40[M+H]^+/324.20 [M−CH3]^+• m/z and 340.40 [M+H]^+/202.10 [M−C8H9O2]^+• m/z. When conducting dopamine kinetics, galanthamine was used as the internal standard and samples were not ethyl acetate extracted prior to LC/MS/MS analysis. To remove protein, two volumes of acetonitrile were added followed by 1 hr at −20° C. and 10 min centrifugation at 16,100×g, 4° C. The supernatant was dried under vacuum and re-suspended in the starting mobile phase before analysis. The HPLC time program was changed to start at 5% solvent B with solution going to waste until 3.9 min, at 5 min start linear gradient to 25% B at […], 90% B at 9.5 min, 90% B at 11 min, 5% B at 11.1 min and 5% B at 16 min. Ions monitored in the MRM were 168.00 [M+H]^+/151.00 [M+H-OH]^+ m/z and 168.00 [M+H]^+/119.00 [M−OH—OCH3]^+• m/z. AdoMet steady state kinetic parameters were determined with norbelladine as the saturated substrate. Product was quantitated using HPLC with the 28 min program used for screening enzyme assays. Product for assays on the additional NpN4OMT variants was detected with this same 28 min program on HPLC.
When conducting kinetic experiments the K, was at least five fold higher than the minimum concentration of substrate and fivefold lower than the maximum concentration of substrate tested.

T2 sequence (A0A077EWA5 whole entry): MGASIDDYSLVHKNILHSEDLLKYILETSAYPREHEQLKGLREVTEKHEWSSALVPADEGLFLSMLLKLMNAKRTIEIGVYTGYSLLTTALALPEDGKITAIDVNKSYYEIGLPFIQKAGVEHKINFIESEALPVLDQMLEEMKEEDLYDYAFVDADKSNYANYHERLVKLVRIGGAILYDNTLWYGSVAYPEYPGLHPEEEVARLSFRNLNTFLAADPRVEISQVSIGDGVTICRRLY

COc1ccc(CNCCc2ccc(O)cc2)cc1OC [3′,4′-O-Dimethylnorbelladine]
product formation as CYP96T1 substrate (CYP96T1): products were not detected

COc1cc(C=O)ccc1O [vanillin]
product formation / activity as NpN4OMT substrate (NpN4OMT1; text statement): Products were not detected

[Co+2] [cobalt]
enzymatic activity upon addition of divalent cation (NpN4OMT1): enzymatic activity improved

NCCc1ccc(O)cc1 [tyramine]
product formation / activity as NpN4OMT substrate (NpN4OMT1; text statement): Products were not detected
product formation / activity as NpN4OMT substrate (NpN4OMT1; text statement, listed as Tyramine): not methylated

CN(CCc1ccc(O)cc1)Cc1ccc(O)c(O)c1 [N-methylnorbelladine]
product formation as CYP96T1 substrate (CYP96T1): Product formation is not observed

O=C(O)/C=C/c1ccc(O)c(O)c1 [caffeic acid]
product formation / activity as NpN4OMT substrate (NpN4OMT1): Products were not detected

NCCc1ccc(O)c(O)c1 [dopamine]
product formation / activity as NpN4OMT substrate (NpN4OMT1): served as a substrate, but with less efficiency
kcat (NpN4OMT1; substrate of NpN4OMT1, ± = Standard error, ND = Not detected): 0.06 ± 0.0025 s⁻¹
Km (NpN4OMT1; substrate of NpN4OMT1, ± = Standard error, ND = Not detected, AdoMet determined with norbelladine as the saturated substrate): 7.3 ± 2.7 µM

COc1cc2c(cc1O)[C@@H](Cc1ccc(O)cc1)NCC2 [(R)-Coclaurine]
product formation as CYP96T1 substrate (CYP96T1): yield products with a mass −2 m/z

COc1cc2c(cc1O)[C@H](Cc1ccc(O)cc1)NCC2 [(S)-Coclaurine]
product formation as CYP96T1 substrate (CYP96T1): yield products with a mass −2 m/z

COc1ccc(CN(C)CCc2ccc(O)cc2)cc1O [4′-O-Methyl-N-methylnorbelladine]
product formation as CYP96T1 substrate (CYP96T1): One product is enzymatically produced

COc1ccc(CNCCc2ccc(O)cc2)cc1O [4′-O-Methylnorbelladine]
product formation as CYP96T1 substrate (CYP96T1): C—C phenol coupled
kcat (CYP96T1; substrate of CYP96T1): 0.25 ± 0.0338 s⁻¹
kcat (CYP96T1; substrate of CYP96T1, production of noroxomaritidine): 15.0 ± 2.03 L/min
Km (CYP96T1; substrate of CYP96T1, production of (10aR,4bR)- and (10aS,4bS)-noroxomaritidine, Michaelis-Menten with substrate inhibition): 1.13 ± 0.5 µM

O=Cc1ccc(O)c(O)c1 [3,4-dihydroxybenzaldehyde]
product formation / activity as NpN4OMT substrate (NpN4OMT1; text statement): Products were not detected; also recorded: lack of enzymatic activity

[Mg+2] [magnesium]
enzymatic activity upon addition of divalent cation (NpN4OMT1): increased fourfold more

Oc1ccc(CCNCc2ccc(O)c(O)c2)cc1 [norbelladine]
product formation as CYP96T1 substrate (CYP96T1): Product formation is not observed

COc1cc(CNCCc2ccc(O)cc2)ccc1O [3′-O-Methylnorbelladine]
product formation as CYP96T1 substrate (CYP96T1): products were not detected
